In article PMC11945486, “TAS1R2/TAS1R3 Single-Nucleotide Polymorphisms Affect Sweet Taste Receptor Activation by Sweeteners: The SWEET Project” (Nutrients, 2025):

Molecular target: T1, human TAS1R2-I234V (subunit alone) (Homo sapiens, UniProt Q8TE23, I234V)
T1 construct: expressed in transfected cells; host or cells: HEK293T-Gα16gust44
T1 sequence (Q8TE23 20-839 I234V): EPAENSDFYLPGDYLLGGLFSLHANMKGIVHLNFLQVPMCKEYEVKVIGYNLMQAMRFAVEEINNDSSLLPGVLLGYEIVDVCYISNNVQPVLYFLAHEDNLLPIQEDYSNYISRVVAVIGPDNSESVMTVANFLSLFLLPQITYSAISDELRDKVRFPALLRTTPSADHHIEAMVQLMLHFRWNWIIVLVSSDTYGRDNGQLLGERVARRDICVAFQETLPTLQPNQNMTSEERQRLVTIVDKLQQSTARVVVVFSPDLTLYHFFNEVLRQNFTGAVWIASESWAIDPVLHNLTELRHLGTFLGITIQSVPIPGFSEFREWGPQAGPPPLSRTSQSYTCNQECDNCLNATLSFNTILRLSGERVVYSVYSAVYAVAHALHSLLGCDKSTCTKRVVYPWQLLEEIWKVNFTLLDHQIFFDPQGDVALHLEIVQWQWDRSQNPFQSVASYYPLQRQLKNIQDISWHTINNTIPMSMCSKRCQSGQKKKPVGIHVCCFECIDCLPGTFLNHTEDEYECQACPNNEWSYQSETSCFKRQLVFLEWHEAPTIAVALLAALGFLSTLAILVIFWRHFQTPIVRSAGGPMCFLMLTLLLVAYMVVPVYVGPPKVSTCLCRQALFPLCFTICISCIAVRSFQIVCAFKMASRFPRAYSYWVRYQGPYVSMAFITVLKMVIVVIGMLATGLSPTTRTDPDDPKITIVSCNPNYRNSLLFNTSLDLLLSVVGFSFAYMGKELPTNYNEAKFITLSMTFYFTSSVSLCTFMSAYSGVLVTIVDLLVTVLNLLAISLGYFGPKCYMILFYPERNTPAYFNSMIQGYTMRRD
Assay: Calcium mobilisation assay, TAS1R2-I234V subunit alone
Format: cell-based
Text: The coding sequences for TAS1R2 and TAS1R3 were commercially synthesised, and the human codon was optimised for expression in human cells. The coding sequences of human TAS1R2 and TAS1R3 were subcloned and inserted into the mammalian expression vectors pcDNA6/myc-HisA and pcDNA4/myc-HisA (Invitrogen; Thermo Fisher Scientific; Illkirch, France) between the EcoRI and NotI restriction sites, generating the plasmids pcDNA6-TAS1R2 and pcDNA4-TAS1R3, respectively. To increase protein expression in mammalian cells, an upstream start codon was used, which was a sequence called MAX, corresponding to the QBI SP163 element also described in pcDNA4-HisMax (Invitrogen; Thermo Fisher Scientific; Illkirch, France). To measure the expression level of the receptor by immunohistochemistry, we used the FLAG sequence ([…]) in the C-terminal position, which encodes the FLAG tag epitope. […]
The HEK293T cells were kindly provided by Jay P. Slack (Givaudan Flavors Corporation; Cincinnati, OH, USA). […] The fluorescence intensity was measured for 90 s (excitation 488 nm, emission 510 nm) in an automated fluorometric FlexStation®3 Multi-Mode microplate reader (Molecular Devices; San Jose, CA, USA). […] The Ca^2+ changes were expressed as fractional changes in fluorescent light intensity: ΔF/F = (F − F0)/F0, where F was the fluorescent light intensity at each point, and F0 was the value of emitted fluorescent light prior to stimulus application. To calculate dose–response relationships, the changes in fluorescence upon stimulus application were averaged, mock-subtracted and baseline-corrected. […] The half-maximal effective concentrations (EC50 values) and maximal signal amplitudes were calculated using SigmaPlot software (version 15.0) (Systat Software; San Jose, CA, USA).
For in vitro calcium mobilisation assay performed on hTAS1R2-SNPs, hTAS1R3-SNPs and mTAS1R3-I60T, 6 to 7 concentrations were tested for each sweet compound, plus buffer alone. All concentration–receptor combinations were measured in duplicate, and each experiment was repeated at least 4 times (8 wells/concentration). […]

Structure (SMILES): C=C(C)[C@@H]1CC=C(/C=N/O)CC1 [Perillartine, perillartine]
- EC50: 311 ± 24.6 µM
- R1 = Variant EC50/WT EC50: 3.5
- Max ΔF/F0 (maximal signal amplitude): 0.29 ± 0.01
